Laboratory results reported in patent US12714682B2, “Calixarene compounds and uses thereof” (UNIVERSITÄT WIEN, priority 2019, dated 2026).
“Also recorded” adds a separate entry of the source.

Assays:
C57BL/6J mice = assay: LPS-induced acute lung inflammation model: lung histopathology; assay type: in vivo; settings: SCA-744 60 mg/kg i.p.
Protocol: Acute lung inflammation was induced by intratracheal administration of 100 μg LPS (Escherichia coli O111:B4; Sigma Aldrich, St. Louis, MO, USA) dissolved in 60 μl sterile phosphate buffered saline (PBS) under ketamine (120 mg/kg ip.; Calypsol, Gedeon Richter Plc., Budapest, Hungary) and xylazine (6 mg/kg ip.; Sedaxylan, Eurovet Animal Health B.V., Bladel, Netherlands) anaesthesia. 24 h after administration, respiratory function parameters were assessed, and lung samples were harvested for histopathological evaluation.
SCA-744 (60 mg/kg) and its vehicle were injected intraperitoneally (i.p.), 24 h, 12 h, 20 min before and 12 h after intratracheal administration of LPS. […] 24 h and 20 min before LPS treatment. Respiratory function measurement was performed 24 h after LPS administration
Excised lung tissue samples were formalin-fixed (6%) and embedded in paraffin, 5 μm sections cut and stained with haematoxylin-eosin for histological analysis. Assessment of airway inflammation was performed in a blind manner in order to evaluate perivascular/peribronchial edema, neutrophil, macrophage and lymphocyte inflammatory cell infiltration as well as goblet cell metaplasia on a semiquantitative scale ranging from 0 to 3 in 2 fields of vision from three depths of lung tissue from each animal.

LDL-R = LDL-R immunoblot in HeLa cells; assay type: cell-based, human; settings: 50 or 500 μM, 24 or 48 hours, no signal in control
Protocol: As illustrated in the Table 1 (FIG. 10), the SCA-744 affects the expression of several genes involved in lipid metabolism, such as the Low-density Lipoprotein Receptor, a major determinant of cholesterol levels in plasma. LDLR. […] To assess directly the effect of SCA-744 on the level of LDL-R expression, HeLa cells were treated with SCA-744 at 50 or 500 μM concentrations for 24 or 48 hours. Cells were harvested, cell lysate prepared and then analysed by immunoblotting using an anti-human LDL-R antibody (C7: sc-18823, Santa Cruz Biotechnologies).

NQO1 = NQO1 immunoblot in HeLa cells; assay type: cell-based, human; settings: 48 hours
Protocol: A specific anti-oxidative effect or activity of a compound is proven, if induces the expression of NQO1 in mammalian cells to a higher level than over vehicle treated cells, preferably by ~3 fold when the compound is used at 500 μM, as determined by a standard assay: Semi-quantitative western blot analysis. HeLa cells are treated with vehicle, 50, 100 and 500 μM of the compound for 48 h and lysed in Triton X-100 extraction buffer (50 mM HEPES [pH 7.4], 140 mM NaCl, 1% Triton X-100, 1 mM EDTA, 0.3 mM DTT and Complete Protease Inhibitor Cocktail). 25 μg of whole cell extract are separated on a 10% SDS-PAGE, after transfer to a PVDF membrane (Bio-Rad), proteins detected by use of standard immunoblotting procedures. […] For the analysis and quantification of the protein levels, Gel Analyzer from ImageJ (National Institute of Health, USA: http://imagej.nih.gov/ij) is used.
To verify experimentally the anti-oxidative effect of SCA-744, the induction of one of these three genes, NQO1, a major anti-oxidative enzyme was investigated. […] In fact, no NQO1 was detected in control cells under the applied experimental conditions, while a prominent signal was induced even at 50 μM, the lowest concentration of SCA-744 tested, that increased by increasing SCA-744 concentrations (approximately 3.5 fold higher signal at 500 μM). […]

[1] = Cytotoxicity, CellTiter-Glo cell viability; assay type: cell-based; settings: human, HEK 293 cells (printed as HEK 293 neuroblastoma cell lines), 72 h treatment, read-out: EC50 cytotoxicity (cell viability, ATP)
Protocol: FIG. 19.: In-vitro assessment of SCA-744 (A) and SCA-754 (B) cytotoxicity. Experiments were performed using HEK 293 […] cell lines. The effect of SCA-744 and SCA-754 on cell viability was assessed using a standard ATP, CellTiter-Glo® Luminescent Cell Viability Assay following 72 hours treatment.
In vitro assessment of cytotoxicity of SCA-744 and SCA-754 in mammalian cells. 72 h following SCA-744 and SCA-754-treatment, cell viability was assessed using a standard ATP method, CellTiter-Glo® Luminescent Cell Viability Assay.

Osteopontin (OPN) = assay: 15N-1H HSQC NMR binding to osteopontin
Protocol: In order to verify the predicted heparan sulfate mimicking activity of SCA-744, its physical interaction was probed with a prototypical HS-binding protein Osteopontin (OPN), a component of the extracellular matrix (ECM). To this end, NMR spectroscopy was used to directly probe the interaction and map the location of the interaction site along the protein backbone. The experimental strategy was as follows: First, ^15N-labelled OPN was prepared following well-established molecular biology technology techniques. Individual residue positions are directly monitored via the so-called ^15N-^1H Heteronuclear Single-Quantum Coherence (HSQC) spectroscopy, where individual cross peaks in the two-dimensional (2D) frequency spectrum corresponds to individual residue positions (amino acids) of the protein. Ligand binding changes the chemical environment of residues located in the binding site and leads to a change in the HSQC spectrum. Since the signal assignment is available, the residue positions which are affected by ligand binding can easily be identified by comparing HSQC spectra of the apo (ligand-free) and ligand-bound state of the protein (FIG. 7A). […] It is very convenient to analyze the chemical shift changes (induced by ligand binding) as a function of residue positions (FIG. 7B,C). Residues that display the largest chemical shift changes are typically part of the binding interface. […] Therefore, it can be concluded that SCA-744 and HS share the same ligand interaction sites and therefore are in competition for binding.

SMILES: O=S(=O)(O)c1cc2c(O)c(c1)Cc1cc(S(=O)(=O)O)cc(c1O)Cc1cc(S(=O)(=O)O)cc(c1O)Cc1cc(S(=O)(=O)O)cc(c1O)C2 [SCA-744, 4-sulfocalix[4]arene]
- pathological changes in perivascular oedema and perivascular/peribronchial infiltration by neutrophils and macrophages (C57BL/6J mice): prevented or greatly reduced the pathological changes
- semiquantitative pathology scores (oedema, granulocytes, macrophages, composite; scale 0 to 3) (C57BL/6J mice; dexamethasone 5 mg/kg ip.): not statistically significantly different from untreated controls
- LDL-R protein (immunoblot) (LDL-R): induces the expression of LDLR; also recorded: the LDL-R was detected in the cell lysates
- NQO1 immunoblot signal increase (NQO1; HeLa, 500 μM, prominent signal already at 50 μM, none in control): approximately 3.5 fold
- NQO1 protein expression (immunoblot) (NQO1; HeLa, 50, 100 and 500 μM): significantly increases the expression; also recorded: very significant up-regulation
- EC50 at 72 h [1]: 2 mM
- binding to OPN (HSQC spectra ligand-free vs ligand-bound) (Osteopontin (OPN); 15N-labelled OPN): binds to a heparan sulfate binding protein, osteopontin; also recorded: unambigious proof for SCA-744 binding to OPN
- binding sites on OPN (chemical shift changes by residue) (Osteopontin (OPN); HS compared with SCA-744): overlapping binding sites
